Laboratory results reported in US11814367B2, “Inhibitors of glycogen synthase 1 (GYS1) and methods of use thereof” (Maze Therapeutics, Inc., priority 2021, dated 2023).

Key:
[1] = biological target: hGYS1 enzyme (recombinant hGYS1/GN1 protein) (Homo sapiens (Human), UniProt P13807); assay: GYS1 coupled enzyme assay (PK/LDH); type: biochemical; settings: hGYS1/GN1 50 nM, UDP-Glucose 0.8 mM, G6P 1 mM; geometric mean of at least 2 runs
[2] = biological target: hGYS2 enzyme (recombinant hGYS2/GN1 protein) (Homo sapiens (Human), UniProt P54840); assay: GYS2 coupled enzyme assay (PK/LDH); type: biochemical; settings: geometric mean of at least 2 assay runs on separate days, read-out: Avg_IC50
From the text: The GYS2 coupled enzyme assay is a kinetic biochemical assay that indirectly quantifies the rate of glycogen synthesis by coupling the conversion of GYS2 substrate UDP-glucose into UDP with downstream enzymatic reactions. UDP is released from UDP-glucose as glucose monomers are linked into the growing glycogen strand by GYS2. The coupled assay then proceeds with pyruvate kinase utilizing UDP and phospho(enol)pyruvate (PEP) to form pyruvate. Lactate dehydrogenase then converts pyruvate and NADH into lactate and NAD+. Oxidation of NADH to NAD+ can be measured continuously with a plate reader by quantifying the decrease in NADH absorbance at 340 nm over time.
Compounds that inhibit the hGYS2 enzyme and, subsequently, the downstream conversion of NADH to NAD+, were tested using assay ready plates (black, clear bottom 384 well plates) in a final DMSO reaction volume of 2.5% DMSO. The Assay Buffer contained 50 mM Tris pH 7.5, 2 mM MgCl2, and 100 mM KCl. Fresh stocks of BSA at a final concentration of 0.02% and TCEP 1 mM were added before splitting buffer into hGYS2 buffer and substrate buffer. To the hGYS2 buffer, rabbit liver glycogen was added at a final concentration of 0.2% glycogen. Glucose-6-Phosphate was added at 2 mM, recombinant hGYS2/GN1 protein was added at 200 nM to the substrate buffer, phosphoenolpyruvate (PEP) was added at 2 mM, UDP-Glucose was added at 2 mM, NADH was added at 0.6 mM, and Pyruvate Kinase/Lactate Dehydrogenase was added at 20 units/mL. The reaction was initiated by mixing hGYS2 buffer and substrate buffer at a 1:1 ratio. Both buffers were plated using a liquid dispensing device with hGYS2 buffer plated first followed by the substrate buffer. Plates were spun briefly to eliminate air bubbles and are immediately read in continuous mode at an absorbance of 340 nm, for 10 time points in one-minute increments, for a total of 10 minutes. The slope from these 10 time points was normalized to the positive and negative control wells. The duplicate % inhibition values are then averaged and fit to a Hill equation for dose response according to the Levenberg-Marquardt algorithm with the Hill equation maximum set to 100 and the minimum set to 0.
The results are shown in Table 4 below, which reports the IC50 of each compound. Unless otherwise specified, IC50 values are reported as the geometric mean of at least 2 assay runs on separate days. As shown in the table below, the compounds of the present invention are not potent inhibitors of human GYS2. Unless otherwise specified, IC50 values are reported as the geometric mean of at least two assay runs on separate days. Each run represents the average of a technical replicate, where each compound was assayed twice in the same plate. A superscript “#” symbol in Table 4 indicates results from a single assay run.

hGYS1 enzyme (recombinant hGYS1/GN1 protein), sequence (P13807 whole entry): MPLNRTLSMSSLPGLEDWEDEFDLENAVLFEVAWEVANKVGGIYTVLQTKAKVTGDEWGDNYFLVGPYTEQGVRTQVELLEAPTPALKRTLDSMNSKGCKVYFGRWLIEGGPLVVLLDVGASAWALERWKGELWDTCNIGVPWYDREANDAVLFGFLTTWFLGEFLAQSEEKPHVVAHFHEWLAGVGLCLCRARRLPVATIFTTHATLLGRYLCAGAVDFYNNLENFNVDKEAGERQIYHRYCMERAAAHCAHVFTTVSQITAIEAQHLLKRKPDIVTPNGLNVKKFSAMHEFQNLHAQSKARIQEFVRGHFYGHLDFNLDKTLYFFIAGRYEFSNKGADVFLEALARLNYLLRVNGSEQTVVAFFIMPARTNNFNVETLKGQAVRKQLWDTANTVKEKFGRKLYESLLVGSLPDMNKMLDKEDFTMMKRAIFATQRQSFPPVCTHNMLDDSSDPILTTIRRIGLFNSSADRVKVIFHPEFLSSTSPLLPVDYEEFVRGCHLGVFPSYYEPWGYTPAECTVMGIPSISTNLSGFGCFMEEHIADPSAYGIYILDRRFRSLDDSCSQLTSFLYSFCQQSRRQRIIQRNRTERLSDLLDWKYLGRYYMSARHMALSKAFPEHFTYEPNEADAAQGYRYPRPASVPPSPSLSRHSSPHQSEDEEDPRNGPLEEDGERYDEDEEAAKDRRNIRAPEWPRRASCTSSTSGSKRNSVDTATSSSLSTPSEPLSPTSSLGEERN
hGYS1 enzyme (recombinant hGYS1/GN1 protein), sequence (P46976 whole entry partner): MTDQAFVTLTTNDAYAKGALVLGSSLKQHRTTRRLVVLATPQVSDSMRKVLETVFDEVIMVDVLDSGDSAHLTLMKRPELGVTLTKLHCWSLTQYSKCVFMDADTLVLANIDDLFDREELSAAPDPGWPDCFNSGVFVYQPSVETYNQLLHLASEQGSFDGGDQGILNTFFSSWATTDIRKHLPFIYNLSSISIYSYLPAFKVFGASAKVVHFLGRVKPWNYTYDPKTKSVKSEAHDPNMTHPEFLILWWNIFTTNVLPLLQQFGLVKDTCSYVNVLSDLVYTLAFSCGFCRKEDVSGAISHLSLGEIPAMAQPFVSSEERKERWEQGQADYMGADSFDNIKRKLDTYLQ
hGYS2 enzyme (recombinant hGYS2/GN1 protein), sequence (P54840 whole entry): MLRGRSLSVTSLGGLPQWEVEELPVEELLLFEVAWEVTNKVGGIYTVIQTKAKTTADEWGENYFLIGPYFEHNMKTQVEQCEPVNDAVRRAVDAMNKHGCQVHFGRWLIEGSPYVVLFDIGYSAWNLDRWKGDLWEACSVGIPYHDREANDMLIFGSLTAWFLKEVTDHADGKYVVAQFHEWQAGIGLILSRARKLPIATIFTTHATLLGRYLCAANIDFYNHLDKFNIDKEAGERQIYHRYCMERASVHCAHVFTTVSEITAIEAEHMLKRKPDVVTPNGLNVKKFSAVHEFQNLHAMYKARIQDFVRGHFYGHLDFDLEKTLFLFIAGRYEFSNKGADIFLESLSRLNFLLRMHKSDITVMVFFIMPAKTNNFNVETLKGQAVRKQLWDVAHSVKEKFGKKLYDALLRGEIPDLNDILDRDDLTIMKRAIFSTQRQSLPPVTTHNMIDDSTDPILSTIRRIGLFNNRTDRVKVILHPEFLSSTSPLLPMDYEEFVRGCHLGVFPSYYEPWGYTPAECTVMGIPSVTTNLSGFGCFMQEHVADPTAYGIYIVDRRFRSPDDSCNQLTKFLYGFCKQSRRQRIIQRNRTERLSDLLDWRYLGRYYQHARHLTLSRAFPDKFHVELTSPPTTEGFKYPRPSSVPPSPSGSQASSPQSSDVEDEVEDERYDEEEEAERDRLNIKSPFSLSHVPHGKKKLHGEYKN
hGYS2 enzyme (recombinant hGYS2/GN1 protein), sequence (P46976 whole entry partner): as the sequence (P46976 whole entry partner) above

SMILES | IC50 [1] [nM] | IC50 [2] [nM]
CC(C)c1ccc([C@@H](NC(=O)[C@@H]2C[C@@H](F)CN2C(=O)Cc2cncnc2)c2ccccc2)cc1 [Compound 27, (2S,4R)-4-fluoro-N-[(S)-phenyl[4-(propan-2-yl)phenyl]methyl]-1-[2-(pyrimidin-5-yl)acetyl]pyrrolidine-2-carboxamide] | 23 | > 100000
Cc1nc(CC(=O)N2C[C@H](F)C[C@H]2C(=O)N[C@@H](c2ccccc2)c2ccc(C(C)C)cc2)no1 [Compound 29, (2S,4R)-4-fluoro-1-[2-(5-methyl-1,2,4-oxadiazol-3-yl)acetyl]-N-[(S)-phenyl[4-(propan-2-yl)phenyl]methyl]pyrrolidine-2-carboxamide] | 70 | > 100000
Cc1noc(CC(=O)N2C[C@H](F)C[C@H]2C(=O)N[C@@H](c2ccccc2)c2ccc(C(C)C)cc2)n1 [Compound 31, (2S,4R)-4-fluoro-1-[2-(3-methyl-1,2,4-oxadiazol-5-yl)acetyl]-N-[(S)-phenyl[4-(propan-2-yl)phenyl]methyl]pyrrolidine-2-carboxamide] | 48 | > 100000
CC(C)c1ccc([C@@H](NC(=O)[C@@H]2C[C@@H](F)CN2C(=O)Cn2ccncc2=O)c2ccccc2)cc1 [Compound 32, (2S,4R)-4-fluoro-1-[2-(2-oxo-1,2-dihydropyrazin-1-yl)acetyl]-N-[(S)-phenyl[4-(propan-2-yl)phenyl]methyl]pyrrolidine-2-carboxamide] | 23 | > 100000
CC(C)c1ccc([C@@H](NC(=O)[C@@H]2C[C@@H](F)CN2C(=O)C(C)n2ccnn2)c2ccccc2)cc1 (stereo partly drawn) [Compound 33, (2S,4R)-4-fluoro-N-[(S)-phenyl[4-(propan-2-yl)phenyl]methyl]-1-[2-(1H-1,2,3-triazol-1-yl)propanoyl]pyrrolidine-2-carboxamide] | 106 | > 100000
CC(C)c1ccc([C@@H](NC(=O)[C@@H]2C[C@@H](F)CN2C(=O)C(C)n2cncn2)c2ccccc2)cc1 (stereo partly drawn) [Compound 34, (2S,4R)-4-fluoro-N-[(S)-phenyl[4-(propan-2-yl)phenyl]methyl]-1-[2-(1H-1,2,4-triazol-1-yl)propanoyl]pyrrolidine-2-carboxamide] | 75 | > 100000
CC(C)c1ccc([C@@H](NC(=O)[C@@H]2C[C@@H](F)CN2C(=O)CCn2cncn2)c2ccccc2)cc1 [Compound 35, (2S,4R)-4-fluoro-N-[(S)-phenyl[4-(propan-2-yl)phenyl]methyl]-1-[3-(1H-1,2,4-triazol-1-yl)propanoyl]pyrrolidine-2-carboxamide] | 185 | > 100000
CC(C)c1ccc([C@@H](NC(=O)[C@@H]2C[C@@H](F)CN2C(=O)Cc2ccc(F)cn2)c2ccccc2)cc1 [Compound 36, (2S,4R)-4-fluoro-1-[2-(5-fluoropyridin-2-yl)acetyl]-N-[(S)-phenyl[4-(propan-2-yl)phenyl]methyl]pyrrolidine-2-carboxamide] | 73 | > 100000
CC(C)c1ccc([C@@H](NC(=O)[C@@H]2C[C@@H](F)CN2C(=O)Cc2ccccn2)c2ccccc2)cc1 [Compound 37, (2S,4R)-4-fluoro-N-[(S)-phenyl[4-(propan-2-yl)phenyl]methyl]-1-[2-(pyridin-2-yl)acetyl]pyrrolidine-2-carboxamide] | 45 | > 100000
CC(C)c1ccc([C@@H](NC(=O)[C@@H]2C[C@@H](F)CN2C(=O)Cc2cccnc2)c2ccccc2)cc1 [Compound 38, (2S,4R)-4-fluoro-N-[(S)-phenyl[4-(propan-2-yl)phenyl]methyl]-1-[2-(pyridin-3-yl)acetyl]pyrrolidine-2-carboxamide] | 51 | > 100000
Cc1cc(CC(=O)N2C[C@H](F)C[C@H]2C(=O)N[C@@H](c2ccccc2)c2ccc(C(C)C)cc2)on1 [Compound 40, (2S,4R)-4-fluoro-1-[2-(3-methyl-1,2-oxazol-5-yl)acetyl]-N-[(S)-phenyl[4-(propan-2-yl)phenyl]methyl]pyrrolidine-2-carboxamide] | 26 | > 100000
Cc1ncc(CC(=O)N2C[C@H](F)C[C@H]2C(=O)N[C@@H](c2ccccc2)c2ccc(C(C)C)cc2)s1 [Compound 41, (2S,4R)-4-fluoro-1-[2-(2-methyl-1,3-thiazol-5-yl)acetyl]-N-[(S)-phenyl[4-(propan-2-yl)phenyl]methyl]pyrrolidine-2-carboxamide] | 31 | > 100000
CC(C)c1ccc([C@@H](NC(=O)[C@@H]2C[C@@H](F)CN2C(=O)C(C)n2ccnc2)c2ccccc2)cc1 (stereo partly drawn) [Compound 44, (2S,4R)-4-fluoro-1-[2-(1H-imidazol-1-yl)propanoyl]-N-[(S)-phenyl[4-(propan-2-yl)phenyl]methyl]pyrrolidine-2-carboxamide] | 106 | > 100000
CC(C)c1ccc([C@@H](NC(=O)[C@@H]2C[C@@H](F)CN2C(=O)CCc2cn[nH]c2)c2ccccc2)cc1 [Compound 46, (2S,4R)-4-fluoro-N-[(S)-phenyl[4-(propan-2-yl)phenyl]methyl]-1-[3-(1H-pyrazol-4-yl)propanoyl]pyrrolidine-2-carboxamide] | 136 | > 100000
CC(C)c1ccc([C@@H](NC(=O)[C@@H]2C[C@@H](F)CN2C(=O)COc2cccnc2)c2ccccc2)cc1 [Compound 48, (2S,4R)-4-fluoro-N-[(S)-phenyl[4-(propan-2-yl)phenyl]methyl]-1-[2-(pyridin-3-yloxy)acetyl]pyrrolidine-2-carboxamide] | 44 | > 100000
CC(C)c1ccc([C@@H](NC(=O)[C@@H]2C[C@@H](F)CN2C(=O)Cc2cnn(C)c2)c2ccccc2)cc1 [Compound 50, (2S,4R)-4-fluoro-1-[2-(1-methyl-1H-pyrazol-4-yl)acetyl]-N-[(S)-phenyl[4-(propan-2-yl)phenyl]methyl]pyrrolidine-2-carboxamide] | 17 | > 100000
CC(C)c1ccc([C@@H](NC(=O)[C@@H]2C[C@@H](F)CN2C(=O)Cn2ccccc2=O)c2ccccc2)cc1 [Compound 51, (2S,4R)-4-fluoro-1-[2-(2-oxo-1,2-dihydropyridin-1-yl)acetyl]-N-[(S)-phenyl[4-(propan-2-yl)phenyl]methyl]pyrrolidine-2-carboxamide] | 19 | > 100000
Cc1nc(CC(=O)N2C[C@H](F)C[C@H]2C(=O)N[C@@H](c2ccccc2)c2ccc(C(C)C)cc2)cs1 [Compound 52, (2S,4R)-4-fluoro-1-[2-(2-methyl-1,3-thiazol-4-yl)acetyl]-N-[(S)-phenyl[4-(propan-2-yl)phenyl]methyl]pyrrolidine-2-carboxamide] | 37 | > 100000
Cc1ccn(CC(=O)N2C[C@H](F)C[C@H]2C(=O)N[C@@H](c2ccccc2)c2ccc(C(C)C)cc2)n1 [Compound 55, (2S,4R)-4-fluoro-1-[2-(3-methyl-1H-pyrazol-1-yl)acetyl]-N-[(S)-phenyl[4-(propan-2-yl)phenyl]methyl]pyrrolidine-2-carboxamide] | 43 | > 100000
Cc1cnn(CC(=O)N2C[C@H](F)C[C@H]2C(=O)N[C@@H](c2ccccc2)c2ccc(C(C)C)cc2)c1 [Compound 56, (2S,4R)-4-fluoro-1-[2-(4-methyl-1H-pyrazol-1-yl)acetyl]-N-[(S)-phenyl[4-(propan-2-yl)phenyl]methyl]pyrrolidine-2-carboxamide] | 41 | > 100000
